# Results: patent publication US20180325914A1, “INCREASING STORAGE OF VITAMIN A, VITAMIN D AND/OR LIPIDS” (Salk Institute for Biological Studies, priority 2014, published 2018)
# Tested on: primary HSCs
# Conditions: mRNA-Seq expression, Day_6_JQ1
structure (smiles),measurement,value
"Cc1sc2c(c1C)C(c1ccc(Cl)cc1)=N[C@@H](CC(=O)OC(C)(C)C)c1nnc(C)n1-2 [JQ1, (S)-tert-butyl 2-(4-(4-chlorophenyl)-2,3,9-trimethyl-6H-thieno[3,2-f][1,2,4]triazolo[4,3-a][1,4]diazepin-6-yl)acetate]",Nav2 value_2,5.311
same,Ndn value_2,33.2623
same,Nnmt value_2,30.0607
same,Npr2 value_2,10.1828
same,Nradd value_2,15.4656
same,Nuak1 value_2,12.6565
same,Nudt18 value_2,6.501
same,Ogdhl value_2,4.726
same,Paqr8 value_2,7.424
same,Pcolce value_2,103.689
same,Pde4dip value_2,14.9114
same,Pdia5 value_2,20.7466
same,Pgcp value_2,20.5624
same,Pgm2 value_2,36.9612
same,Pkig value_2,41.8645
same,Pla2g4a value_2,14.8571
same,Plod3 value_2,47.8896
same,Ppp2r5b value_2,15.5804
same,Praf2 value_2,50.8557
same,Prnp value_2,204.182
same,Psd3 value_2,5.579
same,Ptger3 value_2,6.064
same,Ptgfrn value_2,24.2749
same,Ptk2b value_2,17.1497
same,Qsox1 value_2,91.7197
same,Rasl11a value_2,68.0496
same,Rasl11b value_2,27.3606
same,Reep5 value_2,42.7167
same,Rftn1 value_2,20.5933
same,Rhoq value_2,36.4737
same,Rian value_2,23.3478
same,Samd4 value_2,15.2321
same,Scd1 value_2,23.3211
same,Sec23a value_2,28.8101
same,Sepw1 value_2,95.2318
same,Serping1 value_2,119.681
same,Setbp1 value_2,2.434
same,Shroom3 value_2,5.757
same,Slc7a6 value_2,20.2814
same,Slc24a3 value_2,3.111
same,Snurf value_2,6.708
same,Steap2 value_2,17.4478
same,Thbs2 value_2,44.7287
same,Tmem9 value_2,20.5522
same,Tmem176a value_2,136.733
same,Tpm2 value_2,114.662
same,Ttc19 value_2,10.9985
same,Ufsp2 value_2,21.3133
same,Ypel5 value_2,34.2738
same,Zfp651 value_2,5.6272
same,Zmat3 value_2,18.2014
same,Zranb3 value_2,2.608
same,"value_2, gene 2210013O21Rik",38.055
same,"value_2, gene 2610018G03Rik",7.783
same,"value_2, gene 2700094K13Rik",52.964
same,"value_2, gene 2810055F11Rik",9.372
same,"value_2, gene AI464131",6.393
same,"value_2, gene Acadsb",26.5141
same,"value_2, gene Aes",188.935
same,"value_2, gene Agl",8.667
same,"value_2, gene Ankrd44",7.9209
same,"value_2, gene Aplp1",20.7172
same,"value_2, gene Arhgap1",99.931
same,"value_2, gene Aurka",17.2799
same,"value_2, gene Bace1",40.101
same,"value_2, gene Bmpr1a",33.5187
same,"value_2, gene Bsg",560.767
same,"value_2, gene Cacna2d1",7.615
same,"value_2, gene Calm3",185.514
same,"value_2, gene Ccdc3",44.0572
same,"value_2, gene Ccdc102a",12.129
same,"value_2, gene Ccdc122",5.501
same,"value_2, gene Ccne1",13.7889
same,"value_2, gene Cdc42bpg",9.647
same,"value_2, gene Cenpa",18.2009
same,"value_2, gene Cfh",33.8709
same,"value_2, gene Clip3",25.4738
same,"value_2, gene Cpeb2",7.639
same,"value_2, gene Cpxm1",119.242
same,"value_2, gene Ctsf",19.6316
same,"value_2, gene Cxxc5",28.6295
same,"value_2, gene Dhcr24",17.3636
same,"value_2, gene Dynlt3",74.0523
same,"value_2, gene Efna4",6.053
same,"value_2, gene Ephb2",12.3025
same,"value_2, gene Fam26e",11.6803
same,"value_2, gene Fam168a",23.5828
same,"value_2, gene Fat1",68.0733
same,"value_2, gene Fkbp9",153.585
same,"value_2, gene Fstl1",883.839
same,"value_2, gene Gadd45g",151.82
same,"value_2, gene Ggcx",22.6363
same,"value_2, gene Gjc2",5.148
same,"value_2, gene Gpam",13.2457
same,"value_2, gene Gpnmb",100.919
same,"value_2, gene Gpr153",15.34
same,"value_2, gene Grb10",117.152
same,"value_2, gene Gstm4",11.4343
same,"value_2, gene Gtse1",16.4741
same,"value_2, gene Gucylb3",35.4413
same,"value_2, gene Gxylt2",8.031
same,"value_2, gene Hic1",40.7263
same,"value_2, gene Hspb6",15.1361
same,"value_2, gene Htra1",128.76
same,"value_2, gene Irs2",11.6492
same,"value_2, gene Itgb5",206.046
